# Reference: patent publication US6258790A, “Antisense modulation of integrin α4 expression” (Isis Pharmaceuticals, Inc., priority 1999, dated 2001)
# Where “and” joins values, the source holds several entries; their conditions need not be identical. Equal values may be shown once.
# Columns and labels:
# murine integrin α4 = assay: Antisense inhibition of murine integrin α4 protein expression in IC-21 macrophage cells (flow cytometry, CD49d-PE); assay type: cell-based, mouse; conditions: for % Control (integrin α4 protein) / % Inhib (integrin α4 protein): Table 11
# Procedure: Murine IC-21 macrophage cells (American Type Culture Collection, Manassas, Va.) were used for further study. Additional oligonucleotides were designed to target murine integrin α4. These are shown in Table 10; all 2' MOE nucleotides are shown in bold and remaining positions are 2' deoxy. All 2'-MOE cytosines in these compounds are 5' methylcytosines. IC-21 cells were seeded at 5×10^4 cell/well plates two days before assay. […] Wells were triplicates.
# Cells (triplicates) were seeded at 2.5×10^4 cells/well in 24-well plates the day before treatment. Oligonucleotide concentrations were 0.2, 1, 5, 25 and 50 nM in 3 ug/ml LIPOFECTIN. Cells were harvested with 2 mM EDTA for 4 minutes, then 1 ml of 2% BSA, 0.2% azide was added per contents of each well.
# IC-21 cells were treated with 0.3, 1, 3, 10 and 30 nM oligonucleotide with 3 ug/ml LIPOFECTIN for 4 hours. Cells were incubated for 24 hours, harvested with trypsin, stained with 2 ug/ml CD49d-PE and rat IgG2B as in previous examples.
# These compounds were tested for ability to inhibit integrin α4 protein expression.
# human integrin α4 = assay: Inhibition of human integrin α4 protein levels by antisense oligonucleotides (LIPOFECTIN, flow cytometry with CD49d-FITC) in A375 melanoma cells; assay type: cell-based; design: % Inhib.: tested at 200 nM; conditions: for % Control (integrin α4 protein) / % Inhib (integrin α4 protein): Table 1, 200 nM oligonucleotide, 6 ug/ml LIPOFECTIN
# Description: Integrin α4 protein levels can be quantitated in a variety of ways well known in the art, such as immunoprecipitation, Western blot analysis (immunoblotting), ELISA or fluorescence-activated cell sorting (FACS). Antibodies directed to integrin α4 can be identified and obtained from a variety of sources, such as the MSRS catalog of antibodies (Aerie Corporation, Birmingham, Mich.), or can be prepared via conventional antibody generation methods.
# Target sites are indicated by nucleotide numbers, as given in the sequence source reference (GenBank accession no. L12002), to which the oligonucleotide binds. All compounds in Table 1 are 18 nucleotides in length, with a phosphorothioate backbone and a centered 10-base deoxynucleotide gap flanked by 2'-methoxyethoxy (2'MOE) wings. Human A375 melanoma cells (American Type Culture Collection, Manassas, Va.) were plated at 2000 cells/cm^2 two days before oligonucleotide treatment. Cells were treated with oligonucleotides at a dose of 200 nM oligonucleotide and 6 ug/ml LIPOFECTIN for four hours. Cells were incubated overnight and harvested with 2 mM EDTA in PBS. Cells were washed in 2% bovine serum albumin, 0.2% sodium azide in D-PBS at 4° C. Cells were centrifuged at 200×g, and the supernatant was decanted. […] Antibodies were incubated with the cells for 30 minutes at 4° C. in the dark, under gentle agitation. Cells were washed again as above and then resuspended in 0.3 ml of FacsFlow buffer with 0.5% formaldehyde. Cells were analyzed on Becton Dickinson FACScan. Results are expressed as percentage of control expression based on mean fluorescence intensity.
# Cells were harvested with trypsin at 48 and 72 hours after oligonucleotide treatment and stained with 2 ug/ml CD49d-FITC as in the previous example.
# Where backbones are mixed, linkages are shown as "s" for phosphorothioate (P=S or PS) and "o" for phosphodiester (P=O or PO). Where target region is indicated as `M62841,` oligonucleotides are targeted to the promotor region whose sequence is described in GenBank Accession No. M62841. Remaining oligonucleotides are targeted to the sequence described in Genbank Accession No. L12002 and their target sites on the L12002 sequence are indicated.
# Target sites refer to nucleotide numbers on the target sequence (GenBank Accession No. L12002) to which the oligonucleotides hybridize.
# Oligonucleotides were synthesized as "gapmers" consisting of a 9-nucleotide region of deoxynucleotides flanked by three 2'-O-methoxyethyl(2'-MOE) nucleotides on the 5' end and eight 2'-MOE nucleotides on the 3' end. 2'-MOE nucleotides are shown in bold in the table. Oligonucleotides were synthesized with phosphorothioate backbones throughout, and all cytosines are 5-methylcytosines.
# [1] = IC-21 cells, 25 nM, triplicates
# [2] = IC-21 cells, 25 nM, triplicates, 0.025 µM
# [3] = Table 24, A375 cells, lipofectin, as Example 8
substance,measurement,setting,value
"17046 (CCGCAGCCATGCGCTCTTGG; phosphorothioate, 2'-modified, further chemistry not given here) [compound 17046]",% Control,"murine integrin α4; Table 16, 0.3 nM",161%
same,% Control,"murine integrin α4; Table 16, 1 nM",123%
same,% Control,"murine integrin α4; Table 16, 3 nM",125%
same,% Control,"murine integrin α4; Table 16, 10 nM",75%
same,% Inhib.,"murine integrin α4; Table 16, 10 nM",25%
"16435 (CACCTCGCTTCCGCAGCCAT; phosphorothioate, 2'-MOE/deoxy, further chemistry not given here) [compound 16435]",% Control (integrin α4 protein),murine integrin α4; [1],30%
same,% Inhib (integrin α4 protein),murine integrin α4; [2],70% and > 50%
"16436 (CACCTCGCTTCCGCAGCCAT; phosphorothioate, 2'-MOE/deoxy, further chemistry not given here) [compound 16436]",% Control (integrin α4 protein),murine integrin α4; [1],47%
same,% Inhib (integrin α4 protein),murine integrin α4; [2],53% and > 50%
"16437 (CGCTTCCGCAGCCATGCGCT; phosphorothioate, 2'-MOE/deoxy, further chemistry not given here) [compound 16437]",% Control (integrin α4 protein),murine integrin α4; [1],36%
same,% Inhib (integrin α4 protein),murine integrin α4; [2],64% and > 50%
"16428 (antisense GGCCACTGACCAGAGTTGCA; phosphorothioate, 2'-MOE/deoxy gapmer, further chemistry not given here) [compound 16428]",% Control (integrin α4 protein),murine integrin α4; [1],67%
same,% Inhib (integrin α4 protein),murine integrin α4; [1],33%
"16434 (CACCTCGCTTCCGCAGCCAT; phosphorothioate, 2'-MOE/deoxy, further chemistry not given here) [compound 16434]",% Control (integrin α4 protein),murine integrin α4; [1],33%
same,% Inhib (integrin α4 protein),murine integrin α4; [2],67% and > 50%
"16430 (antisense GGCCACTGACCAGAGTTGCA; phosphorothioate, 2'-MOE/deoxy gapmer, further chemistry not given here) [compound 16430]",% Control (integrin α4 protein),murine integrin α4; [1],50%
same,% Inhib (integrin α4 protein),murine integrin α4; [2],50% and > 50%
"16431 (CCGCAGCCATGCGCTCTTGG; phosphorothioate, 2'-MOE/deoxy, further chemistry not given here) [compound 16431]",IC50,murine integrin α4; IC-21 cells,~1 nM
same,% Control (integrin α4 protein),murine integrin α4; [1],35%
same,% Inhib (integrin α4 protein),murine integrin α4; [2],65% and > 50%
same,% Inhib.,"murine integrin α4; Table 12, 0.2 nM, triplicates",18%
same,% of control,"murine integrin α4; Table 12, 0.2 nM, triplicates",82%
same,% Inhib.,"murine integrin α4; Table 12, 1 nM, triplicates",43%
same,% of control,"murine integrin α4; Table 12, 1 nM, triplicates",57%
same,% Inhib.,"murine integrin α4; Table 12, 5 nM, triplicates",66%
same,% of control,"murine integrin α4; Table 12, 5 nM, triplicates",34%
same,% Inhib.,"murine integrin α4; Table 12, 25 nM, triplicates",68%
same,% of control,"murine integrin α4; Table 12, 25 nM, triplicates",32%
same,% Inhib.,"murine integrin α4; Table 12, 50 nM, triplicates",70%
same,% of control,"murine integrin α4; Table 12, 50 nM, triplicates",30%
"17047 (CCGCAGCCATGCGCTCTTGG; phosphorothioate, 2'-modified, further chemistry not given here) [compound 17047]",% Control,"murine integrin α4; Table 16, 0.3 nM",132%
same,% Control,"murine integrin α4; Table 16, 1 nM",107%
same,% Control,"murine integrin α4; Table 16, 3 nM",77%
same,% Inhib.,"murine integrin α4; Table 16, 3 nM",23%
same,% Control,"murine integrin α4; Table 16, 10 nM",36%
same,% Inhib.,"murine integrin α4; Table 16, 10 nM",67%
"17048 (GCCGACACCCGTTCGTTCGG; phosphorothioate, 2'-modified, further chemistry not given here) [compound 17048]",% Control,"murine integrin α4; Table 16, 0.3 nM",159%
same,% Control,"murine integrin α4; Table 16, 1 nM",159%
same,% Control,"murine integrin α4; Table 16, 3 nM",150%
same,% Control,"murine integrin α4; Table 16, 10 nM",119%
"16479 (ACCTCCTCGCTCACGCGCTA; phosphorothioate DNA, further chemistry not given here) [compound 16479]",% Control (integrin α4 protein),murine integrin α4; [1],96%
"17045 (CCGCAGCCATGCGCTCTTGG; phosphorothioate, 2'-modified, further chemistry not given here) [compound 17045]",% Control,"murine integrin α4; Table 16, 0.3 nM",109%
same,% Control,"murine integrin α4; Table 16, 1 nM",65%
same,% Inhib.,"murine integrin α4; Table 16, 1 nM",35%
same,% Control,"murine integrin α4; Table 16, 3 nM",34%
same,% Inhib.,"murine integrin α4; Table 16, 3 nM",66%
same,% Control,"murine integrin α4; Table 16, 10 nM",12%
same,% Inhib.,"murine integrin α4; Table 16, 10 nM",88%
"16432 (CCGCAGCCATGCGCTCTTGG; phosphorothioate, 2'-MOE/deoxy, further chemistry not given here) [compound 16432]",% Control (integrin α4 protein),murine integrin α4; [1],53%
same,% Inhib (integrin α4 protein),murine integrin α4; [1],47%
"26642 (TCAGGGTGGCTTAAAGAAGC; phosphorothioate, 2'-MOE/deoxy, further chemistry not given here) [compound 26642]",inhibition (Example 11),"human integrin α4; Example 11 assay, dose not stated",≥ 40%
same,% Control,"human integrin α4; Table 6, 10 nM",84%
same,% Inhib.,"human integrin α4; Table 6, 10 nM",16%
same,% Control,"human integrin α4; Table 6, 30 nM",77%
same,% Inhib.,"human integrin α4; Table 6, 30 nM",23%
same,% Control,"human integrin α4; Table 6, 100 nM",56%
same,% Inhib.,"human integrin α4; Table 6, 100 nM",44%
same,% Control,"human integrin α4; Table 6, 300 nM",23%
same,% Inhib.,"human integrin α4; Table 6, 300 nM (highest dose)",77%
same,% Control,human integrin α4; [3],67%
same,% Inhib.,human integrin α4; [3],33%
24478 (GGCGGGCTGTTTTCCATT; chemistry not given here) [compound 24478],% Control (integrin α4 protein),human integrin α4; A375 cells,115%
24464 (TTTGTTTCCATTGCATTC; chemistry not given here) [compound 24464],% Control (integrin α4 protein),human integrin α4; A375 cells,62%
same,% Inhib (integrin α4 protein),human integrin α4; A375 cells,38%
24444 (GGAACATTCAACACTAAG; chemistry not given here) [compound 24444],% Control (integrin α4 protein),human integrin α4; A375 cells,68%
same,% Inhib (integrin α4 protein),human integrin α4; A375 cells,32%
"16429 (antisense GGCCACTGACCAGAGTTGCA; phosphorothioate, 2'-MOE/deoxy gapmer, further chemistry not given here) [compound 16429]",% Control (integrin α4 protein),murine integrin α4; [1],60%
same,% Inhib (integrin α4 protein),murine integrin α4; [1],40%
"16477 (CGGACCAGTACCAGGGTTAC; phosphorothioate, 2'-deoxy, further chemistry not given here) [compound 16477]",% Control (integrin α4 protein),murine integrin α4; [1],96%
24460 (TTTCATGTAAGATATTTA; chemistry not given here) [compound 24460],% Control (integrin α4 protein),human integrin α4; A375 cells,94%
107240 (antisense AGAGTTATCTGTGACTTCAC; chemistry not given here) [compound 107240],% Control,human integrin α4; [3],40%
107236 (antisense GCCTCGCTTCCCAAGCCATG; chemistry not given here) [compound 107236],% Control,human integrin α4; [3],43%
"26643 (TTGCCCTTATATGAGAAACA; phosphorothioate, 2'-MOE, 5-methyl-C, further chemistry not given here) [compound 26643]",% Control,"human integrin α4; Table 4, 10 nM",90%
same,% Inhib.,"human integrin α4; Table 4, 10 nM",10%
same,% Control,"human integrin α4; Table 4, 30 nM",95%
same,% Control,"human integrin α4; Table 4, 100 nM",93%
same,% Control,"human integrin α4; Table 4, 300 nM",66%
same,% Inhib.,"human integrin α4; Table 4, 300 nM (highest dose)",34%
24458 (CCTAAATAACTTCCAAAT; chemistry not given here) [compound 24458],% Control (integrin α4 protein),human integrin α4; A375 cells,88%
same,% Inhib (integrin α4 protein),human integrin α4; A375 cells,12%
24471 (ACCGAAAAGCACCAACTG; chemistry not given here) [compound 24471],% Control (integrin α4 protein),human integrin α4; A375 cells,80%
same,% Inhib (integrin α4 protein),human integrin α4; A375 cells,20%
24469 (GTCCAAACATACTTAACG; chemistry not given here) [compound 24469],% Control (integrin α4 protein),human integrin α4; A375 cells,68%
same,% Inhib (integrin α4 protein),human integrin α4; A375 cells,32%
107230 (antisense AGACTCGCGTCCTGGCCCGG; chemistry not given here) [compound 107230],% Control,human integrin α4; [3],73%
same,% Inhib.,human integrin α4; [3],27%
